Data as given in US8129397B2, “Substituted thieno[2,3-d]pyrimidines as AMPA modulators” (MSD Oss B.V., priority 2007, dated 2012).

Experiments:
AMPA (GluR1) receptor = target: T1, AMPA (GluR1) receptor (Homo sapiens, UniProt P42261); experiment: Ca2+ influx fluorescence assay (FLEXstation, HEK.GluR1(i) cells); type: cell-based; conditions: Ca2+ influx in the presence of glutamate, Fluo-3, read-out: EC50, positive modulation of the AMPA receptor
T1 construct: expressed in transfected cells; host or cells: HEK cells (HEK.GluR1(i)), kept under hygromycin selection
T1 sequence (P42261 19-906 isoform P42261-2 limits assumed, species assumed): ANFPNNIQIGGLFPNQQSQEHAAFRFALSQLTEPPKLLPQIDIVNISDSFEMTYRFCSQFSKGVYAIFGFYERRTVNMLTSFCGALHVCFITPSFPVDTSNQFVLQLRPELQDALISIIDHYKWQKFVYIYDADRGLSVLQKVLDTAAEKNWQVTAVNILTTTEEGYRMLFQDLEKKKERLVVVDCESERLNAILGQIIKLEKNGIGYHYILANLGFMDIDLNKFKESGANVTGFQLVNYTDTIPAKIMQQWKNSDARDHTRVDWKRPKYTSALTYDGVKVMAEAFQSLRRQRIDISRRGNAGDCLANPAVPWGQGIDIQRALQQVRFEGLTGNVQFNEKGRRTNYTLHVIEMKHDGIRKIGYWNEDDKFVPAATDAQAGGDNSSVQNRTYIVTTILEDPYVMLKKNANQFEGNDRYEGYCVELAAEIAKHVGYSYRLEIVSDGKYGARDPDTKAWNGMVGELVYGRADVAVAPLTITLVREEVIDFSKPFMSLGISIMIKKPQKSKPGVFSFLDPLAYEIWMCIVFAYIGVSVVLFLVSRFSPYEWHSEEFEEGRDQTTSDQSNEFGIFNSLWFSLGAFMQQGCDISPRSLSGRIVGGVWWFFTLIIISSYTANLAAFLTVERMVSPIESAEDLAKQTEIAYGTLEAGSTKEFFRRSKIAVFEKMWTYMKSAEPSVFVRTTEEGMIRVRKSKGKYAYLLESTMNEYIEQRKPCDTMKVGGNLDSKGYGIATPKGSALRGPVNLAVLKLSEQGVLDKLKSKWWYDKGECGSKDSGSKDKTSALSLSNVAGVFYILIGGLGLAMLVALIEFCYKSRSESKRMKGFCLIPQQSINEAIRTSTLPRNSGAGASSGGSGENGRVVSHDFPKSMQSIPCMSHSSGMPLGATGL
Description: A: Ca^2+ Influx Fluorescence Assays
The compounds in this invention may be tested using a biological assay which measures Ca^2+ influx mediated through positive modulation of the AMPA (GluR1) receptor using standard techniques in the art such as, but not limited to, a FLEXstation (manufactured by Molecular Devices, Sunnyvale, Calif.). An optical readout using fluorescent probes is employed to measure ion channel dependent changes in intracellular ion concentration or membrane potential. The assay utilises the Ca^2+ conductance of functional homomeric GluR1(i) AMPA receptors to generate glutamate-dependent Ca^2+ responses. Influx of Ca^2+ through the ion channel is measured indirectly through an increase in intracellular Ca^2+ levels using the calcium sensitive dye such as, but not limited to, Fluo-3 (Molecular Devices, Sunnyvale, Calif.) in FLEXstation. A positive AMPA receptor modulator, in the presence of glutamate, will result in an influx of Ca^2+ through the ion channel which can be measured indirectly through an increase in intracellular Ca^2+ levels using the calcium sensitive dye Fluo-3 in FLEXstation.
HEK.GluR1(i) cells were maintained in DMEM supplemented with 10% fetaclone II, 1% non-essential amino acids and 150 μg/mL hygromycin, at 37° C./5% CO2. […]

[1] = test system: postnatal rat cortical neurones; experiment: Whole cell patch clamp recording of glutamate-evoked currents; type: cell-based; conditions: at 10 μM compound, glutamate 0.5 mM, holding potential −60 mV
Protocol: B: Patch Clamp Recording.
The whole cell configuration of the patch clamp technique (Hamill et al., Pflugers Arch. 1981, […], 85-100) was used to measure glutamate-evoked currents from postnatal rat cortical neurones. A glass coverslip containing the culture was transferred to the recording chamber (Warner Instrument Corp., Hamden, Conn.) mounted on the stage of an inverted microscope (Nikon, Kingston, UK). The recording chamber contained 1-2 ml extracellular solution (145 mM NaCl, 5.4 mM KCl, 10 mM HEPES, 0.8 mM MgCl2, 1.8 CaCl2, 10 mM glucose and 30 mM sucrose, adjusted to pH 7.4 with 1M NaOH) and was constantly perused at a rate of 1 ml/min. Recordings were performed at room temperature (20-22° C.) using an Axopatch 200B amplifier (Axon Instruments Ltd., Foster City, Calif.). Data acquisition and analysis was performed using Signal software (Cambridge Electronic Design Ltd., Cambridge, UK). Pipettes were manufactured from GC120F-10 glass (Harvard Apparatus, Edenbridge UK) using a model P-87 electrode puller (Sutter Instruments Co., Novarto, Calif.). The patch electrodes had typical resistances of between 3-5 MQ when filled with intracellular solution (140 mM potassium gluconate, 20 mM HEPES, 1.1 mM EGTA, 5 mM phosphocreatine, 3 mM ATP, 0.3 mM GTP, 0.1 mM Caca2, 5 mM MgCl2, adjusted to pH 7.4 with 1M KOH). […]

- EC50 (AMPA (GluR1) receptor): 1000 nM
Compound: Cc1cc2c(=O)[nH]c(Cn3cc(CNCc4nccs4)c(C(F)(F)F)n3)nc2s1 [Example 1, 6-Methyl-2-((4-((thiazol-2-ylmethylamino)methyl)-3-(trifluoromethyl)-1H-pyrazol-1-yl)methyl)thieno[2,3-d]pyrimidin-4(3H)-one]
- percentage increase in steady state current [1]: 235±44%
